Where only a bound is given, the exact number is not on record here.

For this test, the system named is HT29 cells. The experiment in a line: Inhibition of cell necrosis (CCK8 method), induced programmed necrosis of HT29 cells. It counts as cell-based. The conditions noted are these: Homo sapiens, HT-29; rescue from necrosis induced by TNF-α 20 ng/mL, AT-406 1 μM, Z-VAD-FMK 20 μM; 16-20 hours; CCK-8, OD 450 nm. The protocol: Assay Example 2. Assay Method for Compounds Inhibiting Cell Necrosis (CCK8 Method)
In this assay example 2, under the condition of inducing programmed cell necrosis, different concentrations of the test compounds were added to test the IC50 of the rescue effect of the test compounds on the programmed necrosis.
• Compounds: Dissolved in DMSO to make a 10 mM solution; • TNF-α: The initial concentration was 100 μg/mL; • Z-VAD-FMK: Dissolved in DMSO to make a 10 mM solution; • AT-406: Dissolved in DMSO to make a 10 mM solution. I. Experimental Steps • 1) Compound dilution: All test compounds were dissolved in DMSO to prepare a 10 mM stock solution, and the first concentration gradient dilution of the test compounds was completed in DMSO. The gradient dilution factor was 4 times and 9 concentration gradients were made; A 40-fold overall dilution of all compounds was completed in the cell culture medium, and the resulting compound was 10× compound, which will be added to the wells of the 96-well plate containing cells, so that the final cell culture medium was 1× the designed final concentration. The general drug design is 9 concentration gradients, of which the highest final concentration is 25000 nM, the lowest concentration after 4-fold dilution of 9 concentrations is 0.38 nM, and the final concentration of DMSO in all wells is 0.25%. The compound dilution process is shown in FIG. 3. • 2) HT 29 cells in good growth condition were selected, trypsinized, the cells was collected by centrifugation, resuspended in McCOY's 5A complete medium (containing 10% FBS) and counted, and the number of cells and survival rate were recorded. • 3) Cells were inoculated to the 60 wells in the middle of the 96-well culture plate at a density of 12000 cells/80 μL/well, surrounding wells were filled with sterile water, and incubated overnight. • 4) 10 μL of the 10× compound diluted with the medium was added to the assay wells, 10 μL of McCOY's 5A complete medium containing 2.5% DMSO was added to the inducer-free wells and the control wells, mixed and shaked, and incubated for 30 minutes. • 5) Then 10 μL of inducer mixture (TNF-α, AT-406, Z-VAD-FMK with the final concentration of 20 ng/mL, 1 μM, 20 μM) was added into the assay wells and control wells. 10 μL McCOY's 5A complete medium was added to wells without inducer. Cells were cultured in an incubator with 5% CO2, at 37° C. • 6) After culturing for 16-20 hours, 10 μL of CCK-8 reagent was added to each well, and incubated for about 2 hours; • 7) The OD value was read at 450 nm on the multi-function plate reader. • 8) Data processing: Inhibition rate of necrosis (%)=100*(X−B)/(A−B) • A: The OD values of the wells without inducer (containing cells, CCK-8, without compound and inducer); • […]: OD values of assay wells (containing cells, CCK-8, compound, inducer); • B: OD values of control wells (containing cells, CCK-8, inducer, without compound). Then the value were imported into Graphpad Prism5 software for curve fitting and the IC50 values were calculated.
`COc1ccc(-c2ccnc(NC(=O)c3nnc(Cc4ccccc4)[nH]3)c2)cc1` [Example 9, 5-benzyl-N-(4-(4-methoxyphenyl)pyridin-2-yl)-4H-1,2,4-triazole-3-carboxamide] returned an IC50 of over 10000 nM. `O=C(Nc1cc(-c2cc(OCCC3CCOCC3)ccc2Cl)ncn1)c1nnc(CC2CCCCC2)[nH]1` [Example 473, N-(6-(2-chloro-5-(2-(tetrahydro-2H-pyran-4-yl)ethoxy)phenyl)pyrimidin-4-yl)-5-(cyclohexylmethyl)-4H-1,2,4-triazole-3-carboxamide] gave an IC50 of at most 100 nM.

Take `CC(C)(O)CCCOc1ccc(F)c(-c2ccnc(NC(=O)c3nnc(Cc4ccccc4)[nH]3)c2)c1` [Example 312, 5-benzyl-N-(4-(2-fluoro-5-((4-hydroxy-4-methylpentyl)oxy)phenyl)pyridin-2-yl)-4H-1,2,4-triazole-3-carboxamide]: the concentration for half-maximal inhibition (IC50) was 100 to 1000 nM. The result for `CCC(O)(CC)CCCOc1ccc(C)c(-c2ccnc(NC(=O)c3nnc(CC4CCCC4)[nH]3)c2)c1` [Example 166, 5-(cyclopentylmethyl)-N-(4-(5-((4-ethyl-4-hydroxyhexyl)oxy)-2-methylphenyl)pyridin-2-yl)-4H-1,2,4-triazole-3-carboxamide] reads at most 100 nM. The result for `CC(C)(O)CCCOc1ccc(Cl)c(-c2ccnc(NC(=O)c3nnc(Cc4cc(-c5ccccc5)ccc4F)[nH]3)c2)c1` [Example 504, N-(4-(2-chloro-5-((4-hydroxy-4-methylpentyl)oxy)phenyl)pyridin-2-yl)-5-((4-fluoro-[1,1′-biphenyl]-3-yl)methyl)-4H-1,2,4-triazole-3-carboxamide] reads 100 to 1000 nM; that for `COCCOc1ccc(Cl)c(-c2ccnc(NC(=O)c3nnc(Cc4ccccc4)[nH]3)c2)c1` [Example 379, 5-benzyl-N-(4-(2-chloro-5-(2-methoxyethoxy)phenyl)pyridin-2-yl)-4H-1,2,4-triazole-3-carboxamide], 100 to 1000 nM. Next, `Cc1ccc(C(=O)NCCC(C)(C)O)cc1-c1ccnc(NC(=O)c2nnc(CC3CCCC3)[nH]2)c1` [Example 488, 5-(cyclopentylmethyl)-N-(4-(5-((3-hydroxyl-3-methylbutyl)carbamoyl)-2-methylphenyl)pyridin-2-yl)-4H-1,2,4-triazole-3-carboxamide]: at most 100 nM; `COc1ccc(OC)c(-c2ccnc(NC(=O)c3nnc(Cc4ccccc4)[nH]3)c2)c1` [Example 18, 5-benzyl-N-(4-(2,5-dimethoxyphenyl)pyridin-2-yl)-4H-1,2,4-triazole-3-carboxamide]: 1000 to 10000 nM.

Consider `CCC(O)(CC)CCCOc1ccc(Cl)c(-c2ccnc(NC(=O)c3nnc(Cc4ccccc4)[nH]3)c2)c1` [Example 359, 5-benzyl-N-(4-(2-chloro-5-((4-ethyl-4-hydroxyhexyl)oxy)phenyl)pyridin-2-yl)-4H-1,2,4-triazole-3-carboxamide], for which the IC50 was at most 100 nM. On to `Cc1ccc(OCCCC(C)(C)O)cc1-c1ccnc(NC(=O)c2nnc(Cc3cc(F)ccc3F)[nH]2)c1` [Example 203, 5-(2,5-difluorobenzyl)-N-(4-(5-((4-hydroxy-4-methylpentyl)oxy)-2-methylphenyl)pyridin-2-yl)-4H-1,2,4-triazole-3-carboxamide], for which the IC50 was at most 100 nM. Next, `Cc1ccc(OCCCC(C)(C)O)cc1-c1ccnc(NC(=O)c2nnc(Cc3cc(C(F)(F)F)ccc3F)[nH]2)c1` [Example 211, 5-(2-fluoro-5-trifluoromethylbenzyl)-N-(4-(5-((4-hydroxy-4-methylpentyl)oxy)-2-methylphenyl)pyridin-2-yl)-4H-1,2,4-triazole-3-carboxamide]: 100 to 1000 nM. Next, `Cc1ccc(OCCCC(C)(C)O)cc1-c1ccnc(NC(=O)c2nnc(Cc3cc(F)cc(F)c3F)[nH]2)c1` [Example 215, 5-(2,3,5-trifluorobenzyl)-N-(4-(5-((4-hydroxy-4-methylpentyl)oxy)-2-methylphenyl)pyridin-2-yl)-4H-1,2,4-triazole-3-carboxamide]: at most 100 nM; `Cc1ccc(N(C)CCCC(C)(C)O)cc1-c1ccnc(NC(=O)c2nnc(Cc3ccccc3)[nH]2)c1` [Example 168]: 100 to 1000 nM.

As a reminder, the IC50 is the concentration that gives 50% inhibition. Lower therefore signals inhibition by little substance.

For the origin of these results see patent publication US12435060B2, “Acylamino bridged heterocyclic compound, and composition and application thereof” (BEIJING SCITECH-MQ PHARMACEUTICALS LIMITED, priority 2019, dated 2025).
